System: phosphorylation of AKT on Ser473 as a readout of the PI3K pathway in T-47D (heterozygous PIK3CA H1047R) cells
Test: PI3K pathway activation assay, pAKT Ser473 HTRF, T-47D cells
Format: cell-based
Conditions: Homo sapiens, T47D, 2 h, two hours of treatment
Method: The inhibitory activity of compounds was evaluated by measuring phosphorylation of AKT on Ser473 as a readout of the PI3K pathway using HTRF (CisBio catalog number: 64AKSPE). These studies were conducted in the T-47D (heterozygous PIK3CA H1047R) and SKBR3 (PIK3CA WT) cell lines. Cells were maintained in a 37° C. incubator at 5% CO2 in the following media: T-47D: RPMI 1640, ATCC© Modification (Gibco, A10491-01) supplemented with 10% v/v FBS (Gibco, 26140-079), 1% penicillin streptomycin (Gibco, 15140-122), and 7.4 ug/mL insulin (MilliporeSigma, I9278); SKBR3: McCoy's 5a (Modified) Medium (Gibco, 16600-082) supplemented with 10% v/v FBS (Gibco, 26140-079). Cells were seeded in 384-well plates at a density of 4,000 cells/well. Compounds dissolved in DMSO were added using a digital dispense (D300E, Tecan) 10-point serial dilution. After two hours of treatment, cells were lysed for thirty minutes and then incubated with detection reagents per HTRF kit material and manufacturer's instructions. Fluorescence signal was measured with a multimode plate reader (Envision 2105, Perkin Elmer). Fluorescent signal was normalized to background and DMSO controls to obtain percent inhibition/activity for each compound.

SMILES | IC50 [nM]
Cc1cc(C(C)Nc2ccccc2C(=O)O)c2nc(N3CC4CC4C3)n(C)c(=O)c2c1F (single isomer, unassigned) [Example 95, 2-((1-(2-(3-Azabicyclo[3.1.0]hexan-3-yl)-5-fluoro-3,6-dimethyl-4-oxo-3,4-dihydroquinazolin-8-yl)ethyl)amino)benzoic acid] | < 500
CONC(=O)c1ccccc1NC(C)c1cc(C)cc2c(=O)n(C)c(N3Cc4ccccc4C3)nc12 (stereo not drawn) [Example 5, 2-((1-(2-(isoindolin-2-yl)-3,6-dimethyl-4-oxo-3,4-dihydroquinazolin-8-yl)ethyl)amino)-N-methoxybenzamide] | 500 to 10000
Cc1cc(C(C)Nc2ccccc2C(O)C(F)(F)F)c2nc(N3Cc4ccccc4C3)n(C)c(=O)c2c1 (stereo not drawn) [Example 12, 2-(isoindolin-2-yl)-3,6-dimethyl-8-(1-((2-(2,2,2-trifluoro-1-hydroxyethyl)phenyl)amino)ethyl)quinazolin-4(3H)-one] | 500 to 10000
Cc1cc(C(C)Sc2ccccc2C(=O)O)c2nc(N3Cc4ccccc4C3)n(C)c(=O)c2c1 (stereo not drawn) [Example 13, 2-((1-(2-(isoindolin-2-yl)-3,6-dimethyl-4-oxo-3,4-dihydroquinazolin-8-yl)ethyl)thio)benzoic acid] | 500 to 10000
Cc1cc(C(C)Nc2ccccc2C(=O)O)c2nc(N3CC4CC4C3)n(C)c(=O)c2c1C#N (stereo not drawn) [Example 14, 2-((1-(2-(3-azabicyclo[3.1.0]hexan-3-yl)-5-cyano-3,6-dimethyl-4-oxo-3,4-dihydroquinazolin-8-yl)ethyl)amino)benzoic acid] | 500 to 10000
CC(Nc1ccccc1C(=O)O)c1cc(C(F)(F)F)cc2c(=O)n(C)c(N3Cc4ccccc4C3)nc12 (stereo not drawn) [Example 15, 2-((1-(2-(isoindolin-2-yl)-3-methyl-4-oxo-6-(trifluoromethyl)-3,4-dihydroquinazolin-8-yl)ethyl)amino)benzoic acid] | < 500
CC(Nc1ccccc1C(=O)O)c1cc(C(F)(F)F)cc2c(=O)n(C)c(N3CC4CC4C3)nc12 (stereo not drawn) [Example 16, 2-((1-(2-(3-azabicyclo[3.1.0]hexan-3-yl)-3-methyl-4-oxo-6-(trifluoromethyl)-3,4-dihydroquinazolin-8-yl)ethyl)amino)benzoic acid] | 500 to 10000
Cc1cc(C(C)Nc2ccccc2C(=O)O)c2nc(N3Cc4ccccc4C3)n(-c3cccnc3)c(=O)c2c1 (stereo not drawn) [Example 18, 2-((1-(2-(isoindolin-2-yl)-6-methyl-4-oxo-3-(pyridin-3-yl)-3,4-dihydroquinazolin-8-yl)ethyl)amino)benzoic acid] | 500 to 10000
COc1cccc(NC(C)c2cc(C)cc3c(=O)n(C)c(N4Cc5ccccc5C4)nc23)c1C(=O)O (stereo not drawn) [Example 29, 2-((1-(2-(isoindolin-2-yl)-3,6-dimethyl-4-oxo-3,4-dihydroquinazolin-8-yl)ethyl)amino)-6-methoxybenzoic acid] | 500 to 10000
Cc1cc(C(C)Nc2ccc(C(F)(F)F)cc2C(=O)O)c2nc(N3Cc4ccccc4C3)n(C)c(=O)c2c1 (stereo not drawn) [Example 30, 2-((1-(2-(isoindolin-2-yl)-3,6-dimethyl-4-oxo-3,4-dihydroquinazolin-8-yl)ethyl)amino)-5-(trifluoromethyl)benzoic acid] | 500 to 10000
Cc1cc(C(C)Nc2cc(F)ccc2C(=O)O)c2nc(N3Cc4ccccc4C3)n(C)c(=O)c2c1 (stereo not drawn) [Example 32, 4-fluoro-2-((1-(2-(isoindolin-2-yl)-3,6-dimethyl-4-oxo-3,4-dihydroquinazolin-8-yl)ethyl)amino)benzoic acid] | < 500
Cc1cc(C(C)Nc2ccc(Cl)cc2C(=O)O)c2nc(N3Cc4ccccc4C3)n(C)c(=O)c2c1 (stereo not drawn) [Example 33, 5-chloro-2-((1-(2-(isoindolin-2-yl)-3,6-dimethyl-4-oxo-3,4-dihydroquinazolin-8-yl)ethyl)amino)benzoic acid] | 500 to 10000
Cc1cc(C(C)Nc2ncccc2C(=O)O)c2nc(N3Cc4ccccc4C3)n(C)c(=O)c2c1 (stereo not drawn) [Example 36, 2-((1-(2-(isoindolin-2-yl)-3,6-dimethyl-4-oxo-3,4-dihydroquinazolin-8-yl)ethyl)amino)nicotinic acid] | 500 to 10000
C=CC(=O)Nc1c(C)cc(C(C)Nc2ccccc2C(=O)O)c2nc(N3CC4CC4C3)n(C)c(=O)c12 (stereo not drawn) [Example 38, 2-((1-(5-acrylamido-2-(3-azabicyclo[3.1.0]hexan-3-yl)-3,6-dimethyl-4-oxo-3,4-dihydroquinazolin-8-yl)ethyl)amino)benzoic acid] | 500 to 10000
Cc1cc(C(C)Nc2c(F)cccc2C(=O)O)c2nc(N3Cc4ccccc4C3)n(C)c(=O)c2c1 (stereo not drawn) [Example 45, 3-fluoro-2-((1-(2-(isoindolin-2-yl)-3,6-dimethyl-4-oxo-3,4-dihydroquinazolin-8-yl)ethyl)amino)benzoic acid] | 500 to 10000
Cc1cc(C(Nc2ccccc2C(=O)O)C(F)(F)F)c2nc(N3CC4CC4C3)n(C)c(=O)c2c1 (stereo not drawn) [Example 47, 2-[[1-[2-(3-azabicyclo[3.1.0]hexan-3-yl)-3,6-dimethyl-4-oxoquinazolin-8-yl]-2,2,2-trifluoroethyl]amino]benzoic acid] | 500 to 10000
CC(Nc1ccccc1C(=O)O)c1cc(C#N)cc2c(=O)n(C)c(N3Cc4ccccc4C3)nc12 (stereo not drawn) [Example 50, 2-((1-(6-cyano-2-(isoindolin-2-yl)-3-methyl-4-oxo-3,4-dihydroquinazolin-8-yl)ethyl)amino)benzoic acid] | 500 to 10000

Continued, values first:

IC50 [nM] | SMILES
< 500 | Cc1cc(C(C)Nc2ccccc2C(=O)O)c2nc(N3CCC(F)(F)CC3)n(C)c(=O)c2c1 (single isomer, unassigned) [Example 37, 2-((1-(2-(4,4-difluoropiperidin-1-yl)-3,6-dimethyl-4-oxo-3,4-dihydroquinazolin-8-yl)ethyl)amino)benzoic acid]
500 to 10000 | Cc1cc(C(C)Nc2ccccc2C(=O)O)c2nc(N3CCC(c4ccccc4)C3)n(C)c(=O)c2c1 (single isomer, unassigned) [Example 52, 2-[1-[3,6-dimethyl-4-oxo-2-(3-phenylpyrrolidin-1-yl)quinazolin-8-yl]ethylamino]benzoic acid]
< 500 | Cc1cc(C(C)Nc2ccccc2C(=O)O)c2nc(N3CCC(C)(C)CC3)n(C)c(=O)c2c1 (stereo not drawn) [Example 17, 2-((1-(2-(4,4-dimethylpiperidin-1-yl)-3,6-dimethyl-4-oxo-3,4-dihydroquinazolin-8-yl)ethyl)amino)benzoic acid]
500 to 10000 | Cc1cc(C(C)Nc2ccccc2C(=O)O)c2nc(-c3ccn[nH]3)n(C)c(=O)c2c1 (stereo not drawn) [Example 25, 2-((1-(3,6-dimethyl-4-oxo-2-(1H-pyrazol-5-yl)-3,4-dihydroquinazolin-8-yl)ethyl)amino)benzoic acid]
500 to 10000 | Cc1cc(C(C)Nc2ccccc2C(=O)O)c2nc(N)n(C)c(=O)c2c1 (stereo not drawn) [Example 26, 2-((1-(2-amino-3,6-dimethyl-4-oxo-3,4-dihydroquinazolin-8-yl)ethyl)amino) benzoic acid]
500 to 10000 | Cc1cc(C(C)Nc2ccccc2C(=O)O)c2nc(O)n(C)c(=O)c2c1 (stereo not drawn) [Example 42, 2-((1-(2-hydroxy-3,6-dimethyl-4-oxo-3,4-dihydroquinazolin-8-yl)ethyl)amino) benzoic acid]
500 to 10000 | Cc1cc(C(C)Nc2ccccc2C(=O)O)c2nc(N3CCC(C#N)CC3)n(C)c(=O)c2c1 (stereo not drawn) [Example 44, 2-((1-(2-(4-cyanopiperidin-1-yl)-3,6-dimethyl-4-oxo-3,4-dihydroquinazolin-8-yl)ethyl)amino)benzoic acid]
500 to 10000 | Cc1cc(C(C)Nc2ccccc2C(=O)O)c2nc(N3CCc4ccccc4C3)n(C)c(=O)c2c1 (stereo not drawn) [Example 51, 2-[1-[2-(3,4-dihydro-1H-isoquinolin-2-yl)-3,6-dimethyl-4-oxoquinazolin-8-yl]ethylamino]benzoic acid]
500 to 10000 | Cc1cc(C(C)Nc2ccccc2C(=O)O)c2nc(N3CCS(=O)(=O)CC3)n(C)c(=O)c2c1 (stereo not drawn) [Example 56, 2-((1-(2-(1,1-dioxidothiomorpholino)-3,6-dimethyl-4-oxo-3,4-dihydroquinazolin-8-yl)ethyl)amino)benzoic acid]
500 to 10000 | Cc1cc(C(C)Nc2ccccc2C(=O)O)c2nc(N3CCC(O)CC3)n(C)c(=O)c2c1 (stereo not drawn) [Example 57, 2-((1-(2-(4-hydroxypiperidin-1-yl)-3,6-dimethyl-4-oxo-3,4-dihydroquinazolin-8-yl)ethyl)amino)benzoic acid]

Same assay, conditions: two hours of treatment, read-out: T47D pAKT IC50

IC50 [nM] | SMILES
500 to 10000 | Cc1cc(C(C)Nc2ccccc2C(=O)O)c2nc(N3CCC(c4ccccc4)C3)n(C)c(=O)c2c1 (single isomer, unassigned) [Example 53, 2-[1-[3,6-dimethyl-4-oxo-2-(3-phenylpyrrolidin-1-yl)quinazolin-8-yl]ethylamino]benzoic acid]
500 to 10000 | Cc1cc(C(C)Nc2ccccc2C(=O)O)c2nc(N3CC4CCC3C4)n(C)c(=O)c2c1 (single isomer, unassigned) [Example 101, 2-((1-(2-(2-Azabicyclo[2.2.1]heptan-2-yl)-3,6-dimethyl-4-oxo-3,4-dihydro-quinazolin-8-yl)ethyl)amino)benzoic acid]
500 to 10000 | Cc1cc(C(C)Nc2ccccc2C(=O)O)c2nc(N3CCC(C)(C)CC3)n(C)c(=O)c2c1 (stereo not drawn) [Example 3, 2-((1-(2-(4,4-dimethylpiperidin-1-yl)-3,6-dimethyl-4-oxo-3,4-dihydroquinazolin-8-yl)ethyl)amino)benzoic acid]
